According to paper PMC6783924, “Alkaloid Lindoldhamine Inhibits Acid-Sensing Ion Channel 1a and Reveals Anti-Inflammatory Properties” (Toxins, 2019):

Molecular target: T1, acid-sensing ion channel isoform 1a (ASIC1a) (Rattus norvegicus, UniProt P55926)
T1 construct: gene Asic1
T1 sequence (P55926 1-526): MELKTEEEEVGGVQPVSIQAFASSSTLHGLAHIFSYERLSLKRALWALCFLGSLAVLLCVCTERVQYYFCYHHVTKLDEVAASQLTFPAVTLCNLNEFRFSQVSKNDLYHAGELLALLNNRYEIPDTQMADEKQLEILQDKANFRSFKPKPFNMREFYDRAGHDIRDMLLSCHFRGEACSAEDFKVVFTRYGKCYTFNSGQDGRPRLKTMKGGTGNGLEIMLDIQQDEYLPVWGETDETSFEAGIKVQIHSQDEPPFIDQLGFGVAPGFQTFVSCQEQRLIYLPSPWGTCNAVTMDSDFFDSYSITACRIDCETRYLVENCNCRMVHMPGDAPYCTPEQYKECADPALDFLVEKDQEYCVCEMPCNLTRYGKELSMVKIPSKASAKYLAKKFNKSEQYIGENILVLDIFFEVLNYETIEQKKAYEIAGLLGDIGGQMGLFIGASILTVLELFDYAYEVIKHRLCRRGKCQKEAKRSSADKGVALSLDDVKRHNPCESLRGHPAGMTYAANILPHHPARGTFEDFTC
Assay: two-electrode voltage clamp, Xenopus laevis oocytes expressing rat ASIC1a, pH […] stimulus from pH […]
Format: cell-based
Conditions: read-out: pH 6.85

IC50: 9 ± 0.3 µM
Structure (SMILES): COc1cc2c(cc1O)C(Cc1ccc(O)c(Oc3ccc(C[C@@H]4NCCc5cc(OC)c(O)cc54)cc3)c1)NCC2 (stereo partly shown) [LIN, lindoldhamine]
